The subject of one data set is Herpes Simpex Virus 2. The class given is cell-based.
The next data set concerns Hepatitis B virus. In kind it is cell-based.
For the next data set, the system named is Rift valley fever virus. The class given is cell-based.
Another data set concerns Adenorovirusirus-5. The class given is cell-based.
A further data set concerns Yellow fever virus. The class given is cell-based.
Data set [1] has as its system human Norovirus replicon (GT1, HG23 cell line). Description: Secondary anti-Norovirus assay, quantitative polymerase chain reaction (replicon). The note with it: for Sl50 - CC50/EC50 / Sl90 - CC50/EC90: quantitative PCR (replicon), HG23 cells. For orientation: In antiviral work, replicon cells carry a viral genome segment that copies itself.
Data set [2] is described as follows: Cytotoxicity by neutral red dye uptake, primary assay. The note with it: human.
In a further data set the test system is Human cytomegalovirus. The class given is cell-based.
Data set [3] can be described thus: Neutral red (toxicity), secondary assay. The note with it: human.
The test system of the next data set is tacaribe virus. In kind it is cell-based.
The subject of the next data set is Vaccina virus. In kind it is cell-based.
The subject of data set [4] is Venezuelan equine encephalalitis virus. In kind it is cell-based.
In data set [5] the test system is human Norovirus replicon (GT1, HG23 cell line). Description: Primary anti-Norovirus assay, RNA hybridization (replicon). The note with it: for Sl50 - CC50/EC50 / Sl90 - CC50/EC90: RNA hybridization (replicon), HG23 cells.
The subject of another data set is polio virus. The class given is cell-based.
The next data set has as its system Hepatitis C virus. The class given is cell-based.
The subject of the next data set is Herpes Simpex Virus 1. The class given is cell-based.

As usually defined, the CC50 is the concentration that lowers cell viability or growth by half. Read a high CC50 as lower toxicity to the cells.

For the compound `COc1c(C)cnc(Cn2cnc3c(Cl)cc(N)cc32)c1C` [Compound 1, 4-Chloro-1-((4-methoxy-3,5-dimethylpyridin-2-yl)methyl)-1H-benzo[d]imidazo-6-amine], the antiviral activity result in the data set with Herpes Simpex Virus 2, in the data set on Hepatitis B virus, in the data set on Rift valley fever virus, with Adenorovirusirus-5, in the data set on Yellow fever virus and in the data set with Human cytomegalovirus was “did not have activity” in each case. The antiviral activity result (in the data set on tacaribe virus; in the data set with Vaccina virus; in data set [4]; with polio virus; in the data set with Hepatitis C virus; in the data set with Herpes Simpex Virus 1) was “did not have activity” in each case. Besides, the EC50 came out at 1.4 µM in [1] (Norovirus, GT1, HG23, in Homo sapiens, read-out: EC50 - compound concentration that reduces viral replication by 50%) and 0.617 µM in data set [5] (Norovirus, GT1, HG23, in Homo sapiens, 72 h, read-out: EC50 - compound concentration that reduces viral replication by 50%). Also, the EC90 is 8.5 µM in [1] (Norovirus, GT1, HG23, in Homo sapiens, read-out: EC90 - compound concentration that reduces viral replication by 90%) and 7.5 µM in data set [5] (Norovirus, GT1, HG23, in Homo sapiens, 72 h, read-out: EC90 - compound concentration that reduces viral replication by 90%). Also, the “Sl50 - CC50/EC50” value in data set [1] is on record as >36; in [5], >162. Further, the results for the “Sl90 - CC50/EC90” value in data set [1] and in data set [5] were >6 and >13, respectively. Further, the “activity against Norovirus, data confirmed in the secondary assay” value in data set [1] (secondary assay) was “confirmed”. Besides, the CC50 at 3 day in data set [2] is > 100 µM; in data set [3], > 50 µM. In addition, the “activity against Norovirus in the primary screen” value in data set [5] (primary screen) is “active”.
`C[C@@]1(O)[C@H](O)[C@@H](CO)O[C@H]1n1ccc(N)nc1=O` [2′C-methyl cytidine, reference compound]: in data set [1], the “Sl50 - CC50/EC50” value was >50 and the “Sl90 - CC50/EC90” value is recorded as >17. Further, in data set [5], the “Sl50 - CC50/EC50” value is on record as >48 and the “Sl90 - CC50/EC90” value is >16.

Values taken from patent US9375419B1 (priority 2014, dated 2016).
